Test results taken from PubChem BioAssay AID318 (DTP/NCI, 2004).
Several values for one entry are separate records, joined by “and”; a condition that tells them apart may be missing. Equal values may be shown once. Inconclusive results and toxic doses are left out.

Tested on: BDF1 mice, P815 leukemia ip, survival T/C
Test: NCI In Vivo Anticancer Drug Screen. Data for tumor model P815 Mast Cell Leukemia (Ascitic) (intraperitoneal) in B6D2F1 (BDF1) mice
Conditions: endpoint: survival time, mean or median, higher = longer survival
Protocol: The antitumor activity of compounds was measured in mice bearing transplantable tumors. Survival or tumor size were measured and the results are expressed as the measurement made in the treated group (T) divided by the measurement made in the vehicle treated control group (C). The tumor model used in this assay is P815 Mast Cell Leukemia (Ascitic) (intraperitoneal) in B6D2F1 (BDF1) mice

Cc1c(O)ccc(=O)n1O
T/C (dose: 49.0 mg/kg/injection, schedule: Q01DX015 (ip), vehicle: other): 95 % of control
T/C (dose: 73.0 mg/kg/injection, schedule: Q01DX015 (ip), vehicle: other): 113 % of control
T/C (dose: 110.0 mg/kg/injection, schedule: Q01DX015 (ip), vehicle: other): 105 % of control
T/C (dose: 165.0 mg/kg/injection, schedule: Q01DX015 (ip), vehicle: other): 100 % of control
T/C (dose: 247.0 mg/kg/injection, schedule: Q01DX015 (ip), vehicle: other): 95 % of control

CC1CN=C(c2ccc(NC(=O)c3ccc(C(=O)Nc4ccc(C5=NCC(C)N5)cc4)cc3)cc2)N1 (stereo not drawn)
T/C (dose: 10.0 mg/kg/injection, schedule: Q01DX010 (ip), vehicle: saline): 165 % of control
T/C (dose: 15.0 mg/kg/injection, schedule: Q01DX010 (ip), vehicle: saline): 156 % of control
T/C (dose: 22.0 mg/kg/injection, schedule: Q01DX010 (ip), vehicle: saline): 182 % of control
T/C (dose: 33.0 mg/kg/injection, schedule: Q01DX010 (ip), vehicle: saline): 186 % of control

O=C(Nc1ccc(C2=NCCN2)cc1)c1cccc(C(=O)Nc2ccc(C3=NCCN3)cc2)c1
T/C (dose: 8.0 mg/kg/injection, schedule: Q01DX010 (ip), vehicle: saline): 118 % of control
T/C (dose: 32.0 mg/kg/injection, schedule: Q01DX010 (ip), vehicle: saline): 200 % of control and 160 % of control
T/C (dose: 64.0 mg/kg/injection, schedule: Q01DX010 (ip), vehicle: saline): 181 % of control and 233 % of control

N#C[C@@H]1C2C=CC(CC2)[C@H]1C#N
T/C (dose: 0.25 mg/kg/injection, schedule: Q01DX010 (ip), vehicle: saline): 100 % of control
T/C (dose: 0.5 mg/kg/injection, schedule: Q01DX010 (ip), vehicle: saline): 100 % of control and 105 % of control
T/C (dose: 1.0 mg/kg/injection, schedule: Q01DX010 (ip), vehicle: saline): 100 % of control
T/C (dose: 2.0 mg/kg/injection, schedule: Q01DX010 (ip), vehicle: saline): 88 % of control and 100 % of control

Oc1ccccc1C(Nc1nc2ccccc2s1)c1ccc2cccnc2c1O (stereo not drawn)
T/C (dose: 62.5 mg/kg/injection, schedule: Q01DX015 (ip), vehicle: other): 90 % of control
T/C (dose: 125.0 mg/kg/injection, schedule: Q01DX015 (ip), vehicle: other): 120 % of control
T/C (dose: 250.0 mg/kg/injection, schedule: Q01DX015 (ip), vehicle: other): 98 % of control

C[C@H]1C(=O)O[C@@H]2CCN3CC=C(COC(=O)[C@](C)(O)[C@@]1(C)O)[C@H]23
T/C (dose: 3.13 mg/kg/injection, schedule: Q01DX010 (ip), vehicle: saline): 94 % of control and 100 % of control
T/C (dose: 6.25 mg/kg/injection, schedule: Q01DX010 (ip), vehicle: saline): 100 % of control and 105 % of control
T/C (dose: 12.5 mg/kg/injection, schedule: Q01DX010 (ip), vehicle: saline): 88 % of control and 94 % of control
T/C (dose: 25.0 mg/kg/injection, schedule: Q01DX010 (ip), vehicle: saline): 100 % of control
